According to publication PMC10222120, “Inhibition Studies on Human and Mycobacterial Carbonic Anhydrases with N-((4-Sulfamoylphenyl)carbamothioyl) Amides” (Molecules, 2023):

Experiments:
Experiment in all cases: stopped-flow CO2 hydrase assay
Type in all cases: biochemical
[1] = target: T1, hCA I (Homo sapiens, UniProt P00915); conditions: read-out: KI (nM) ^a / hCA I (α-CA)
T1 construct: gene CA1; recombinant, obtained in-house; cytosolic alpha-CA
Text: stopped-flow CO2 hydrase assay on hCA I

[2] = target: MtCA1 (Mycobacterium tuberculosis, UniProt P9WPJ7); conditions: read-out: KI (nM) ^a / MtCA1 (β-CA)
[3] = target: T2, MtCA3 (Mycobacterium tuberculosis, UniProt P96878); conditions: CO2 […]; […] TRIS pH […]; […] Na2SO4; […] h preincubation at room temperature; read-out: KI (nM) ^a / MtCA3 (β-CA)
T2 construct: gene Rv3273
Text: stopped-flow CO2 hydrase assay on MtCA3

[4] = target: T3, hCA II (Homo sapiens, UniProt P00918); conditions: read-out: KI (nM) ^a / hCA II (α-CA)
T3 construct: gene CA2; recombinant, obtained in-house; cytosolic alpha-CA
Text: stopped-flow CO2 hydrase assay on hCA II

[5] = target: T4, hCA VII (Homo sapiens, UniProt P43166); conditions: read-out: KI (nM) ^a / hCA VII (α-CA)
T4 construct: gene CA7; recombinant, obtained in-house; cytosolic alpha-CA
Text: stopped-flow CO2 hydrase assay on hCA VII

[6] = target: MtCA2 (Mycobacterium tuberculosis, UniProt P9WPJ9); conditions: read-out: KI (nM) ^a / MtCA2 (β-CA)
MtCA2, sequence (P9WPJ9 whole entry, looked up): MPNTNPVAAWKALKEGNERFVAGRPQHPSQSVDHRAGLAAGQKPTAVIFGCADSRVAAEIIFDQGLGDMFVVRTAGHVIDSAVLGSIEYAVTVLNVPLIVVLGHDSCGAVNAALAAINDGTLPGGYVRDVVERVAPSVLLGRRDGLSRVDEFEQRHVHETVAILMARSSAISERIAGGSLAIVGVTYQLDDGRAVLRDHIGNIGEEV

T4 sequence (P43166 whole entry): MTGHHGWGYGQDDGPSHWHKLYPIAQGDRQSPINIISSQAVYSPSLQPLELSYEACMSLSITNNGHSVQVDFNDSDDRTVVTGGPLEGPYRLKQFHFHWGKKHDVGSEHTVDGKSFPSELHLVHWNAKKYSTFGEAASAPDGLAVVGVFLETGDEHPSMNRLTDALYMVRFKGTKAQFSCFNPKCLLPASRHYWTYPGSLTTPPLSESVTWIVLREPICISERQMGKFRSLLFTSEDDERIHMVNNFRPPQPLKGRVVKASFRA
T2 sequence (P96878 555-764 limits assumed): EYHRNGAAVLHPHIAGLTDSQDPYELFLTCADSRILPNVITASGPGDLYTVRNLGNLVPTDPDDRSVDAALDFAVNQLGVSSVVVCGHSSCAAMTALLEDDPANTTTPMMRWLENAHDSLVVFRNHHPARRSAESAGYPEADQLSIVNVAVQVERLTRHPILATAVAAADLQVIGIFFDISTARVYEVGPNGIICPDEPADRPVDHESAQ
T1 sequence (P00915 2-261): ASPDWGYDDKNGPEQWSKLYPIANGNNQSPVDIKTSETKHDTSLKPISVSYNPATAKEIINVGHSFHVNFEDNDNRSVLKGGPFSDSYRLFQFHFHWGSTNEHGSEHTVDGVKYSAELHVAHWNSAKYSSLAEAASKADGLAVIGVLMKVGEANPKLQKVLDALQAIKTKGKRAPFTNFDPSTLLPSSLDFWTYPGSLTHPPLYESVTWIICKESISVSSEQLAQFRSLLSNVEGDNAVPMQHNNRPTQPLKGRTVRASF
MtCA1, sequence (P9WPJ7 2-163): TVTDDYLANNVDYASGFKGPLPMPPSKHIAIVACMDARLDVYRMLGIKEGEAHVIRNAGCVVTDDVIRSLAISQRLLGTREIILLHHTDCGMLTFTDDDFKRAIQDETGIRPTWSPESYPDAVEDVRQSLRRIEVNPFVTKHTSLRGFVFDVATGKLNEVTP

Row | SMILES | Ki [1] [nM] | Ki [2] [nM] | Ki [3] [nM] | Ki [4] [nM] | Ki [5] [nM] | Ki [6] [nM]
1 | CCCCCC(=O)NC(=S)Nc1ccc(S(N)(=O)=O)cc1 [3g, N-((4-sulfamoylphenyl)carbamothioyl)hexanamide] | 13.3 | 3510 | 719 | 46.5 | 3.2 | 3.4
2 | CC(=O)NC(=S)Nc1ccc(S(N)(=O)=O)cc1 [3a, N-((4-Sulfamoylphenyl)carbamothioyl)acetamide] | 85.2 | 897 | 610 | 78.7 | 13.5 | 4.4
3 | CCC(=O)NC(=S)Nc1ccc(S(N)(=O)=O)cc1 [3b, N-((4-Sulfamoylphenyl)carbamothioyl)propionamide] | 58.3 | 252 | 806 | 35.9 | 2.8 | 5.4
4 | NS(=O)(=O)c1ccc(NC(=S)NC(=O)Cc2cccc3ccccc23)cc1 [3i, 2-(Naphthalen-1-yl)-N-((4-sulfamoylphenyl)carbamothioyl)acetamide] | 60.5 | 962 | 2130 | 9.7 | 2.6 | 4.6
5 | CCCC(=O)NC(=S)Nc1ccc(S(N)(=O)=O)cc1 [3c, N-((4-Sulfamoylphenyl)carbamothioyl)butyramide] | 50.3 | 784 | 9400 | 7.7 | 3 | 7.6
6 | CC(C)C(=O)NC(=S)Nc1ccc(S(N)(=O)=O)cc1 [3e, N-((4-sulfamoylphenyl)carbamothioyl)isobutyramide] | 72.7 | 369 | 3670 | 8.9 | 1.1 | 57.1
7 | NS(=O)(=O)c1ccc(NC(=S)NC(=O)C2CC2)cc1 [3d, N-((4-Sulfamoylphenyl)carbamothioyl)cyclopropanecarboxamide] | 87.4 | 95.2 | 6280 | 384 | 1.9 | 4.2
8 | NS(=O)(=O)c1ccc(NC(=S)NC(=O)/C=C/c2ccccc2)cc1 [3k, N-((4-Sulfamoylphenyl)carbamothioyl)cinnamamide] | 47.9 | 224 | 447 | 9.2 | 3.1 | 8.1
9 | NS(=O)(=O)c1ccc(NC(=S)NC(=O)C2CCCCC2)cc1 [3h, N-((4-Sulfamoylphenyl)carbamothioyl)cyclohexanecarboxamide] | 67.8 | 6670 | 7140 | 21.7 | 2.2 | 8.4
10 | NS(=O)(=O)c1ccc(NC(=S)NC(=O)c2ccc([N+](=O)[O-])cc2)cc1 [3l, 4-nitro-N-((4-sulfamoylphenyl)carbamothioyl)benzamide] | 87.6 | 868 | 5280 | 6.8 | 2.5 | 4.8
11 | CC(C)CC(=O)NC(=S)Nc1ccc(S(N)(=O)=O)cc1 [3f, 3-methyl-N-((4-sulfamoylphenyl)carbamothioyl)butanamide] | 36.4 | 782 | 8390 | 5.3 | 2.1 | 21.1
12 | C/C=C/C(=O)NC(=S)Nc1ccc(S(N)(=O)=O)cc1 [3j, N-((4-Sulfamoylphenyl)carbamothioyl)but-2-enamide] | 69.4 | 2420 | 851 | 64.6 | 10.3 | 9.2
